In ChEMBL document CHEMBL1201862, “PubChem BioAssay data set” (2004):
Activity calls are given as the source filed them.

Tests used:
[1] = NIH-3T3 fibroblast cytotoxicity, dose response, cytotoxicity control, cell-based, fluorescence, Alamar Blue, secondary assay (AID 2327); format: functional;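 further: NIH-3T3 mouse fibroblasts cultured with fluconazole at 8 µg/mL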
[2] = test system: Streptococcus sp. 'group A'; experiment: Streptococcus pyogenes SK(-)GAS viability under kanamycin – luminescence, BacTiterGlo, confirmation, counter-screen for streptokinase expression inhibitor project, dose response (AID 1900); format: functional, organism-based
[3] = target: T1, Streptokinase A (Streptococcus pyogenes serotype M1, UniProt P10520); experiment: viability-normalized secreted streptokinase activity reduction – plasminogen activation absorbance, OD405, dose response (AID 1914); format: functional, Streptococcus pyogenes M1 GAS;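 further: secreted streptokinase activity via plasminogen activation per viability signal from cell pellet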
T1 sequence (P10520 whole entry): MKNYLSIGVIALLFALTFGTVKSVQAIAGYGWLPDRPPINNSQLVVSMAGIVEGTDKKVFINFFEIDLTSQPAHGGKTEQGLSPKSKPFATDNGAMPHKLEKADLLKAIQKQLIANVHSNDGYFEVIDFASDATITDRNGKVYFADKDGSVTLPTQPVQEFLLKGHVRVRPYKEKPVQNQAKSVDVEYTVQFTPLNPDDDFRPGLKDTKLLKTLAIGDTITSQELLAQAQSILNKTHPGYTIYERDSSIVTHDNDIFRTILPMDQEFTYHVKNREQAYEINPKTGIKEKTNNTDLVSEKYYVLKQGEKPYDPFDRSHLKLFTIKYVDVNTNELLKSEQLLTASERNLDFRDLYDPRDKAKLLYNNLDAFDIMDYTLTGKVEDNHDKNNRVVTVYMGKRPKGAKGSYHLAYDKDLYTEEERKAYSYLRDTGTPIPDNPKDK

[4] = fluconazole-exposed Candida albicans growth modulators – fluorescence, retest, confirmation (AID 2467); format: functional, cell-based
[5] = test system: Streptococcus; experiment: GAS UMAA2166 growth inhibition – luminescence, BacTiterGlo, counter-screen for streptokinase expression inhibitor project, dose response (AID 1915); format: functional, organism-based;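 further: potency for reduction of bacterial viability or growth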
[6] = target: T2, Cysteine protease ATG4B (Homo sapiens, UniProt Q9Y4P1); format: functional;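 further: Fluorescence-based dose-response confirmation assay measuring inhibition of ATG4B activity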
T2 sequence (Q9Y4P1 whole entry): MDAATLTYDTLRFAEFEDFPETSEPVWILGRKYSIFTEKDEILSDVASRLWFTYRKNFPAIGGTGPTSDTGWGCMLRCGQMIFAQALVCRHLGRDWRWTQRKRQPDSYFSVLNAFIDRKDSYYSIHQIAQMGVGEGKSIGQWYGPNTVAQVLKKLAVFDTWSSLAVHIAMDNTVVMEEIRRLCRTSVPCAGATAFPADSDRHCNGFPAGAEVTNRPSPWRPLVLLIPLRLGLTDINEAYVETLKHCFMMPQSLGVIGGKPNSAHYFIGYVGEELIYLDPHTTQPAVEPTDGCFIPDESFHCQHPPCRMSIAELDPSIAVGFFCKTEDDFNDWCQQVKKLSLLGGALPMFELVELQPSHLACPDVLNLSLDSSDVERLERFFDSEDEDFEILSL

[7] = target: Phospholipase A2 (Homo sapiens, UniProt P04054); format: functional;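 further: confirmatory dose-response counterscreen on phospholipase A2, testing hits that came from an ultra-high-throughput screen for ATG4B inhibitors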
Phospholipase A2, sequence (P04054 whole entry): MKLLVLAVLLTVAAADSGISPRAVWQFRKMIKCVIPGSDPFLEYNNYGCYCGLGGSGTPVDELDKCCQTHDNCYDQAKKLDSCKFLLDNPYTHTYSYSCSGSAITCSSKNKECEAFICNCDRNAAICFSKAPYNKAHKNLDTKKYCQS

[8] = target: T3, Corticotropin-releasing factor receptor 2/Corticotropin-releasing factor-binding protein (Homo sapiens, UniProt P24387+Q13324); experiment: Dose Response confirmation of uHTS hits for small molecule antagonists of the CRF-binding protein and CRF-R2 receptor complex.; format: functional; details: read-out: IC50_Mean
T3 sequence (Q13324 whole entry): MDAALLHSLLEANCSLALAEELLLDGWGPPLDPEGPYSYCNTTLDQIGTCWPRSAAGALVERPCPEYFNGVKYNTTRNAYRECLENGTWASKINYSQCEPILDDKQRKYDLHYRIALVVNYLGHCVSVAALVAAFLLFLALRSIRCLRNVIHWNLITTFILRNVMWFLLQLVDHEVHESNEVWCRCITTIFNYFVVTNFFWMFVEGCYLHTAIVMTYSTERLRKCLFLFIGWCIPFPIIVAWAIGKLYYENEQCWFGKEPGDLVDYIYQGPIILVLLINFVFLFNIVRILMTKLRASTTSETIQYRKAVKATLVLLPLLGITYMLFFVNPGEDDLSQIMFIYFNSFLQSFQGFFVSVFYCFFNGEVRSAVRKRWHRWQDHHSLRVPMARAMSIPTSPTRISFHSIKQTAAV
T3 sequence (P24387 whole entry): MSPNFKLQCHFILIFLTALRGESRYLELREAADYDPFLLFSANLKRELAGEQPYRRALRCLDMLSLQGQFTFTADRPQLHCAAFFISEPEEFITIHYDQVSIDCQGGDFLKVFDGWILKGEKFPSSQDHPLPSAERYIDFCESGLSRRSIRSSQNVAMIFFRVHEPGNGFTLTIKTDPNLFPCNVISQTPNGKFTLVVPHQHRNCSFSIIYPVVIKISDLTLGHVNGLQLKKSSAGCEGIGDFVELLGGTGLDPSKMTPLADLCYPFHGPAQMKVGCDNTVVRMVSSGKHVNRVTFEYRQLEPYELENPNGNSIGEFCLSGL

[9] = target: T3, Corticotropin-releasing factor receptor 2/Corticotropin-releasing factor-binding protein; experiment: activators of CRF receptor 2 with binding protein – uHTS hits, confirmation (AID 602473); format: functional; details: read-out: EC50_Mean
[10] = blockers of CRF-binding protein–CRF-R2 complex – cell-based, uHTS hits, 384-well, dose response (AID 651639); format: functional, Homo sapiens; details: read-out: IC50_Mean
[11] = target: Melanocortin receptor 4 (Homo sapiens, UniProt P32245); experiment: inhibitors of MC4R cAMP signaling – cell-based, TR-FRET, biased antagonists, dose response (AID 602298); format: functional;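 further: antagonist potency against agonist-stimulated cAMP production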
Melanocortin receptor 4, sequence (P32245 whole entry): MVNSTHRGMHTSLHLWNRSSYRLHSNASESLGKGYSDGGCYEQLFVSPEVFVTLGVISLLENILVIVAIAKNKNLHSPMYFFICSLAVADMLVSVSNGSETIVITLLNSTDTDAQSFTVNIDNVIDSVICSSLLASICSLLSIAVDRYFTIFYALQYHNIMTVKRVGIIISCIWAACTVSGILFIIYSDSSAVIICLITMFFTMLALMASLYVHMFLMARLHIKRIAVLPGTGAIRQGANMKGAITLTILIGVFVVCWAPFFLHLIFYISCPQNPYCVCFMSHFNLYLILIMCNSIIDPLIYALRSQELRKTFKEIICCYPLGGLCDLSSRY

[12] = cAMP pathway inhibition in counterscreen cell line – TR-FRET cAMP detection, counter-screen for MC4R biased antagonist project, dose response (AID 602305); format: functional, cell-based;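 further: U2OS cells stimulated with forskolin near its EC80 as the cAMP inducer; potency is for inhibition of forskolin-stimulated cAMP signaling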
[13] = test system: P388/ADR; experiment: cells; format: functional; details: Mus musculus, P388/ADR
[14] = test system: SN12K1; experiment: cells; format: functional; details: Homo sapiens
[15] = test system: P388; experiment: cells; format: functional; details: Mus musculus
[16] = target: T4, Leucine aminopeptidase (Plasmodium falciparum 3D7, UniProt Q8IL11); experiment: P. falciparum M17LAP inhibitors, primary screen, biochemical, fluorogenic H-Leu-NHMec substrate, 1536-well (AID 1619); format: functional
T4 sequence (Q8IL11 whole entry): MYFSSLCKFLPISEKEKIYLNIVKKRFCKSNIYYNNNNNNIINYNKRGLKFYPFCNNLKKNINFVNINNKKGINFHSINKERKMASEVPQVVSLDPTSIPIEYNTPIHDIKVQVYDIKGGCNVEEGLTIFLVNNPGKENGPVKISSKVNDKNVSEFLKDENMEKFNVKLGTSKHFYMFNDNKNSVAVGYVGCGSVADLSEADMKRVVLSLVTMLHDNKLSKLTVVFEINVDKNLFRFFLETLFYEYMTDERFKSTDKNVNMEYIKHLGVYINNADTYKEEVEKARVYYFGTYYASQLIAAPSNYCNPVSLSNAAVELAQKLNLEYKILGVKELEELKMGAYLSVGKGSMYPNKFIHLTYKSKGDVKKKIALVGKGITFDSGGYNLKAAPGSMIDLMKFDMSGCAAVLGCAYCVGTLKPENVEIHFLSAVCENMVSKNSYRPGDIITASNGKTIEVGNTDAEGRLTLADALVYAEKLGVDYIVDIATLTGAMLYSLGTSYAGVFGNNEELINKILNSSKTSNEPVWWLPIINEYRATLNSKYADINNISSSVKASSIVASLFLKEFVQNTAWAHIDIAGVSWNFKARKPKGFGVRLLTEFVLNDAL

[17] = target: T5, Carboxy-terminal domain RNA polymerase II polypeptide A small phosphatase 1 (Homo sapiens, UniProt Q9GZU7); experiment: CTDSP1 inhibitors, concentration-response, biochemical, absorbance readout, ultra-high-throughput screen actives (AID 540297); format: functional
T5 sequence (Q9GZU7 whole entry): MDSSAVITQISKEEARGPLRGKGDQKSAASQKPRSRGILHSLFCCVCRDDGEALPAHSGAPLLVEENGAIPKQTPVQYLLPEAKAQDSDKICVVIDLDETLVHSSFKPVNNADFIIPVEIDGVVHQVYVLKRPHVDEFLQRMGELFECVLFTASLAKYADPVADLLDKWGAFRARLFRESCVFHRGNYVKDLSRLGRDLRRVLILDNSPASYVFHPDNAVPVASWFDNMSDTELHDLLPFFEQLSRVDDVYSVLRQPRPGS

[18] = reduction of Shn3 3'UTR-driven luciferase in osteoblasts – cell-based, Clone20 osteoblasts, firefly luciferase, cherry-picked, dose response (AID 624132); format: functional;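 further: firefly luciferase luminescence from reporter carrying the Shn3 3'UTR in osteoblasts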
[19] = loss of viability in HepG2 cells – cell-based, CellTiter-Glo, cherry-picked, cytotoxicity control for Shn3 inhibitor project, dose response (AID 624134); format: functional
[20] = non-specific 3'UTR reporter inhibition in Clone20-Shn3RL – cell-based, Renilla luciferase, cherry-picked, counter-screen for Shn3 inhibitor project, dose response (AID 624133); format: functional
[21] = target: Heat shock protein HSP 90-alpha (Homo sapiens, UniProt P07900); format: functional, organism-based
[22] = target: 26S proteasome non-ATPase regulatory subunit 14 (Homo sapiens, UniProt O00487); experiment: inhibition of proteasome subunit RPN11 – biochemical, fluorescence polarization, uHTS hits, confirmation (AID 602368); format: functional
26S proteasome non-ATPase regulatory subunit 14, sequence (O00487 whole entry): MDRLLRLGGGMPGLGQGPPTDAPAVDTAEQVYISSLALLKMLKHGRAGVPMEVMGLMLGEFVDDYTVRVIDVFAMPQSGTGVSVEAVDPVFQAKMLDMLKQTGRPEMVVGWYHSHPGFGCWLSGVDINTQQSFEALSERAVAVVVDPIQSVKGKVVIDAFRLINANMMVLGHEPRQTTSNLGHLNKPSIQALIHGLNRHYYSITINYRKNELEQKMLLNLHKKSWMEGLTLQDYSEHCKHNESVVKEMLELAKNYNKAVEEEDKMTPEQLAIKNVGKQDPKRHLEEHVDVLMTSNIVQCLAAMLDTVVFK

[23] = target: 72 kDa type IV collagenase (Homo sapiens, UniProt P08253); experiment: Dose Response validation of uHTS RPN11 inhibitor hits using a MMP-2 Fluorescence assay.; format: functional
72 kDa type IV collagenase, sequence (P08253 whole entry): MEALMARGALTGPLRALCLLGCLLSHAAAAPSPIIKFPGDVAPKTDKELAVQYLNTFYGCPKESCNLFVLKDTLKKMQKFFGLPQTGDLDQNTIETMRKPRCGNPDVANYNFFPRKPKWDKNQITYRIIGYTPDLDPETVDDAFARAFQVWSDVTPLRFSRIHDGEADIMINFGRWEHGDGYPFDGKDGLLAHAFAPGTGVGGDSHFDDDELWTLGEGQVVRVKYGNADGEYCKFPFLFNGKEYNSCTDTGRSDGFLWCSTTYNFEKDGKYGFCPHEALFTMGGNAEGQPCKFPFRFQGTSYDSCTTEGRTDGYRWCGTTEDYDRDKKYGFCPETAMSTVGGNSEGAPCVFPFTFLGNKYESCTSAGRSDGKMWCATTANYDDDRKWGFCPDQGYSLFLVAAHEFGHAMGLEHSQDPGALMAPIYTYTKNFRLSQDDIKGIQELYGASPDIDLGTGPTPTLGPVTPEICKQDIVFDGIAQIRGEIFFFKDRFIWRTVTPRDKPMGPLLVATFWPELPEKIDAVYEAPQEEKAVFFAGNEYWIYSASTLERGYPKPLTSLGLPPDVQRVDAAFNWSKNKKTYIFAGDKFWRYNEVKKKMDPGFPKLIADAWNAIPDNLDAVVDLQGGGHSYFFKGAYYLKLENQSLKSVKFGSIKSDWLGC

[24] = target: Prothrombin (Bos taurus, UniProt P00735); experiment: thrombin protease inhibitors – biochemical, fluorescence polarization, uHTS hits, dose response (AID 602369); format: functional
[25] = target: T6, Tyrosine-protein phosphatase non-receptor type 7 (Homo sapiens, UniProt P35236); experiment: HePTP tyrosine phosphatase activity blockers – biochemical, absorbance, leukemia target, primary screen (AID 521); format: functional
T6 sequence (P35236 whole entry): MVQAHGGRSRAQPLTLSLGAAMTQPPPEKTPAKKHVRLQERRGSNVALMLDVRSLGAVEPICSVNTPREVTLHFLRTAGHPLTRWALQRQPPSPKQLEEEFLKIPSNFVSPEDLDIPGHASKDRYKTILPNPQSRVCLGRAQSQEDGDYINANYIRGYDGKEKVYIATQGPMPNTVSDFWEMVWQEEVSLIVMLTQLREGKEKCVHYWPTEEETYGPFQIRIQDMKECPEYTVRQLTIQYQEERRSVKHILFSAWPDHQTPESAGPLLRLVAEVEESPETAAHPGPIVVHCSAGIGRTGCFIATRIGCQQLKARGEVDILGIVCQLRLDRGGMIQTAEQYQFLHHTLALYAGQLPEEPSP

[26] = target: Disintegrin and metalloproteinase domain-containing protein 17 (Homo sapiens, UniProt P78536); experiment: inhibition of ADAM17 substrate cleavage – biochemical, quenched FRET substrate, counter-screen for ADAM10 exosite inhibitor project, dose response (AID 743253)
Disintegrin and metalloproteinase domain-containing protein 17, sequence (P78536 whole entry, the tested form may be a part): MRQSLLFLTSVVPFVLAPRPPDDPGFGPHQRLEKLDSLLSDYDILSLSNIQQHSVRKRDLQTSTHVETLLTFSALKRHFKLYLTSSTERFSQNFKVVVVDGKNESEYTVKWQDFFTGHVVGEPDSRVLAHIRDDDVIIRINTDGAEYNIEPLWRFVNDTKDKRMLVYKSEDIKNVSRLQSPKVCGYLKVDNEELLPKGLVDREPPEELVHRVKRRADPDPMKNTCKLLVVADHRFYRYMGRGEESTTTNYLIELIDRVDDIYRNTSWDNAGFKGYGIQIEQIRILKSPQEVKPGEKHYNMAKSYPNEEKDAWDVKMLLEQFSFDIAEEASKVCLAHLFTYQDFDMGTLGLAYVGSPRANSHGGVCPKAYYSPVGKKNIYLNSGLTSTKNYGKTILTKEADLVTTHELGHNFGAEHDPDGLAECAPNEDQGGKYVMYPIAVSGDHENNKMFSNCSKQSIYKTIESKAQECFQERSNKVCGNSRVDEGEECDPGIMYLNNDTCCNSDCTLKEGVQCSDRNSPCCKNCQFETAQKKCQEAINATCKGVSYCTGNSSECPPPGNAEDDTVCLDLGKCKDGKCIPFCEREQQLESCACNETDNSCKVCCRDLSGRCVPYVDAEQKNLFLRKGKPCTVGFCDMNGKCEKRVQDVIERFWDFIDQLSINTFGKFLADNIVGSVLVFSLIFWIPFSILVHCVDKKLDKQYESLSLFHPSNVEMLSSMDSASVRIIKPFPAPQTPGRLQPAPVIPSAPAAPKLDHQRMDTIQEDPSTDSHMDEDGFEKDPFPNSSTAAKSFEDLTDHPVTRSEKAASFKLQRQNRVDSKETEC

CC(C)C(Sc1nc(-c2ccccc2)cc(-c2ccccc2)c1C#N)C(=O)O (stereo unspecified)
EC50 [1]: 26.8 µM (active)
EC50 [2]: 7.77 µM (active)
EC50 [3]: 10.1 µM (active)
EC50 [4]: 2.61 µM (active)
EC50 [5]: 9.19 µM (active)
IC50 [6]: 11.3 µM (active)
IC50 [7]: 9.87 µM (active)
IC50 [8]: 6.76 µM (active)
EC50 [9]: 35.7 µM (active)
IC50 [10]: > 20 µM (inactive)

CSCCC(NC(=O)c1ccc([N+](=O)[O-])cc1Cl)C(=O)OC(C)C(=O)NCc1ccco1 (stereo unspecified)
IC50 [11]: > 64.6 µM (inactive)
IC50 [12]: 47.4 µM (inactive)

O=[N+]([O-])c1cc(C(F)(F)F)cc2c1SC1=Nc3ccccc3CN12
GI50 [13]: > 100 µM (inactive)
GI50 [14]: > 100 µM (inactive)
GI50 [15]: > 100 µM (inactive)

O=C(Oc1c(-c2ccccc2)c(=O)n2c3c(cccc13)CC2)c1ccc(F)cc1
IC50 [6]: 14.1 µM (active)
IC50 [7]: 10.9 µM (active)

Cc1ncn(-c2ccc(C(=O)Oc3ccccc3)cn2)n1
IC50 [11]: > 64.5 µM (inactive)
IC50 [12]: > 64.5 µM (inactive)

O=C(O)COc1ccccc1/C=C1\SC(=S)N(/N=C/c2ccccc2O)C1=O
IC50 [16]: 21.3 µM (active)
IC50 [6]: 27.1 µM (inactive)
IC50 [7]: 32.1 µM (inactive)
IC50 [17]: 8.53 µM (active)

COCOc1ccc(OC)cc1
GI50 [13]: > 100 µM (inactive)
GI50 [14]: > 100 µM (inactive)
GI50 [15]: > 100 µM (inactive)

Cc1n[nH]c2ccc(-c3cncc(OC[C@@H](N)Cc4c[nH]c5ccccc45)c3)cc12 [A-443654]
AC50 [18]: 1.77 µM (active)
AC50 [19]: 7.4 µM (active)
AC50 [20]: 2.85 µM (active)

COc1ccc(/C=C/C(=O)c2cc(Br)ccc(=O)c2O)cc1
AC50 [21]: 4.22 µM (active)

CCc1ccccc1OCC(=O)Nc1ccc(N2CCCC2)cc1C
IC50 [22]: 46.2 µM (active)
IC50 [23]: 89 µM (active)
IC50 [24]: 9.96 µM (active)

CCOC(=O)C1=C(Nc2ccc(OC)cc2)S/C(=C\c2ccc(-c3ccccc3C(=O)O)o2)C1=O
IC50 [22]: 17.8 µM (active)
IC50 [23]: > 100 µM (inactive)
IC50 [24]: 13.1 µM (active)

N/C(=N/O)N/N=C\c1cc(Cl)cc(Cl)c1O
GI50 [13]: 0.998 µM (active)
GI50 [14]: 0.366 µM (active)
GI50 [15]: 0.0182 µM (active)

N/C(=N\O)N/N=C/c1ccc2c(c1)OCCO2
GI50 [13]: 12.8 µM (inactive)
GI50 [14]: 2.88 µM (inactive)
GI50 [15]: 13.1 µM (inactive)

COc1ccc(-c2n[nH]c(C(F)(F)F)c2-c2cc3ccccc3o2)c(O)c1
IC50 [25]: > 100 µM (not active)
IC50 [6]: 9.42 µM (active)
IC50 [7]: 7.64 µM (active)
IC50 [26]: > 69.5 µM (inactive)
